According to patent US20210017206A1, “PYRIDINONE AND PYRIMIDINONE PHOSPHATES AND BORONATES USEFUL AS ANTIBACTERIAL AGENTS” (Pfizer Inc., priority 2018, published 2021):
Converted amounts (≈) assume the structure as drawn.

Tests used:
[1] = target: T1, Pseudomonas aeruginosa LpxC enzyme (Pseudomonas aeruginosa, UniProt P47205); assay: IC50 assay, LpxC enzyme from P. aeruginosa (PA LpxC enzyme IC50); assay type: biochemical; settings: P. aeruginosa LpxC 0.1 nM, 25° C., 1 hour, pH 8.0
T1 construct: made in house; host or cells: E. coli
Method: In order to assess the compounds biological activity, selected in vitro assays were conducted on selected compounds. One of the assays measured the compounds ability to disrupt the synthesis of lipopolysaccharide, LPS, which is a component of the outer membrane of Gram-negative bacteria. Disruption of this synthesis is lethal to the bacteria. The assay determined the compound's ability to inhibit LpxC, which is the first enzyme in the biosynthetic pathway for LPS (measured as IC50). Additionally, MICs (minimal inhibitory concentrations) were determined for several bacteria. The specific protocols are described below:
A) IC50 Assay, LpxC Enzyme from P. aeruginosa (Labeled as PA LpxC Enzyme IC50):
At the end of 1 hour, 5 ul of 1 N HCl was added to stop the enzyme reaction, the plates were centrifuged, and then processed with the BioTrove Rapidfire HTMS Mass Spectrometry System. A no-enzyme control was used in calculating the IC50 values from the percent conversion values.

[2] = test system: Acinetobacter baumannii/haemolyticus, multidrug-resistant clinical isolate (AB-3167); assay: MIC determination (CLSI), AB-3167; assay type: cell-based; settings: lower of duplicate values
Method: (§1) B) MIC determinations: The in vitro antibacterial activity of parent compounds of those described in the Examples was evaluated by minimum inhibitory concentration (MIC) testing according to Clinical and Laboratory Standards Institute (CLSI). See: Clinical and Laboratory Standards Institute. Methods for Dilution Antimicrobial Susceptibility Tests for Bacteria that Grow Aerobically; Approved Standard-Eighth Edition. CLSI document M7-A8 [ISBN 1-56238-689-1]. Clinical and Laboratory Standards Institute, 940 West Valley Road, Suite 1400, Wayne, Pa. 19087-1898 USA, 2006; also Clinical and Laboratory Standards Institute. Performance Standards for Antimicrobial Susceptibility Testing; Twentieth Informational Supplement. CLSI document M100-S20 [ISBN1-56238-716-2]. Clinical and Laboratory Standards Institute.
(§2) The MIC determination is a standard laboratory method for evaluating the antibacterial activity of a compound. The MIC represents the lowest drug concentration that inhibits visible growth of bacteria following overnight incubation. […] Typically, the drug concentration range is broken down into 2-fold increments (e.g. 0.06 μg/mL, 0.12 μg/mL. 0.25 μg/mL, 0.50 μg/mL, 1.0 μg/mL, etc.) and the various drug concentrations are all individually incubated overnight with approximately the same number of bacteria. The MIC is then determined by visually inspecting the drug effect at each concentration, and identifying the lowest drug concentration that has inhibited bacterial growth as compared to the drug free control. Typically, bacteria continue to grow at drug concentrations lower than the MIC and don't grow at concentrations at and above the MIC.
(§3) The MIC values described in Table 2 below were derived from assays wherein each test compound was evaluated in duplicate. In cases where the duplicate values varied by 0-2-fold, the lower of the two values was reported below. Generally speaking, if the duplicate values varied by more than 2-fold, the assay was considered non-valid and was repeated until the variation between duplicate runs was <2-fold. In line with the CLSI guidelines referred to above, both control organisms and reference compounds were utilized in each MIC assay to provide proper quality control. MIC values generated with these control organisms and reference compounds were required to fall within a defined range for the assay to be considered valid and be included herein. Those skilled in the art will recognize that MIC values can and do vary from experiment to experiment. […] While a single MIC is reported for each compound and each microorganism, the reader should not conclude that each compound was only tested once. Several of the compounds were subjected to multiple tests. The data reported in Table 2 is reflective of the compounds relative activity and different MICs may have been generated on these occasions in line with the guidelines described above.
(§4) The following bacterial strains were used in these MIC determinations:
2) Acinetobacter baumannii/haemolyticus: Multidrug-resistant clinical isolate labeled as AB-3167 in Table 2;

[3] = test system: Escherichia coli EC-1: VOGEL, mouse virulent; assay: MIC determination (CLSI), EC-1; assay type: cell-based; settings: read-out: EC-1 MIC
Method: as §1, §2, §3, §4
3) Escherichia coli EC-1: VOGEL, mouse virulent labeled as EC-1 in Table 2;

[4] = test system: Pseudomonas aeruginosa UI-18, wild-type (PA-7); assay: MIC determination (CLSI), PA-7; assay type: cell-based; settings: lower of duplicate values
Method: as §1, §2, §3, §4
1) Pseudomonas aeruginosa UI-18: Wild-type, labeled as PA-7 in Table 2;

T1 sequence (P47205 whole entry): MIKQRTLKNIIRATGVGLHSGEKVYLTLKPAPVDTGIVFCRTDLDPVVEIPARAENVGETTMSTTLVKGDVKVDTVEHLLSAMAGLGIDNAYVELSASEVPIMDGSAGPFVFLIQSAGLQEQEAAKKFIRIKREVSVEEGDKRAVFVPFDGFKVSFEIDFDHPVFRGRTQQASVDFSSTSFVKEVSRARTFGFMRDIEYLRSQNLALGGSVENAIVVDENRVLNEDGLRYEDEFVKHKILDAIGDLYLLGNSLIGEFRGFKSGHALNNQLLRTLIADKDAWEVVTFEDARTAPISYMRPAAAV

Compound | IC50 [1] [pM] | MIC [2] [µg/mL] | MIC [3] [µg/mL] | MIC [4] [µg/mL]
COc1ccc(-c2ccn(CC[C@](C)(C(=O)NO)S(C)(=O)=O)c(=O)c2)c(F)c1F [(2R)-4-[4-(2,3-difluoro-4-methoxyphenyl)-2-oxopyridin-1(2H)-yl]-N-hydroxy-2-methyl-2-(methylsulfonyl)butanamide] | 166 | > 64 | 0.015 (≈ 0.0348 µM) | 1 (≈ 2.32 µM)
C[C@@](CCn1ccc(-c2ccc(-n3nccn3)cc2)cc1=O)(C(=O)NO)S(C)(=O)=O [(R)-4-(4-(4-(2H-1,2,3-Triazol-2-yl)phenyl)-2-oxopyridin-1(2H)-yl)-N-hydroxy-2-methyl-2-(methylsulfonyl)butanamide] |  | > 64 | 0.06 (≈ 0.139 µM) | 0.5 (≈ 1.16 µM)
COc1cnn(-c2ccc(-c3ccn(CC[C@](C)(C(=O)NO)S(C)(=O)=O)c(=O)c3)cc2)n1 [(2R)-N-hydroxy-4-{4-[4-(4-methoxy-2H-1,2,3-triazol-2-yl)phenyl]-2-oxopyridin-1(2H)-yl}-2-methyl-2-(methylsulfonyl)butanamide] | 125 | > 64 | 0.03 (≈ 0.065 µM) | 0.5 (≈ 1.08 µM)
C[C@@](CCn1ccc(-c2ccc(-c3nccs3)cc2)cc1=O)(C(=O)NO)S(C)(=O)=O [(2R)-N-hydroxy-2-methyl-2-(methylsulfonyl)-4-{2-oxo-4-[4-(1,3-thiazol-2-yl)phenyl]pyridin-1(2H)-yl}butanamide] | 176 | > 64 | 0.06 (≈ 0.134 µM) | 0.5 (≈ 1.12 µM)
C[C@@](CCn1cnc(-c2ccc(-n3nccn3)cc2)cc1=O)(C(=O)NO)S(C)(=O)=O [(2R)-N-hydroxy-2-methyl-2-(methylsulfonyl)-4-{6-oxo-4-[4-(2H-1,2,3-triazol-2-yl)phenyl]pyrimidin-1(6H)-yl}butanamide] |  | > 64 | 0.06 (≈ 0.139 µM) | 0.5 (≈ 1.16 µM)
